{"source": "patent US7087620B2", "about": "“Liquid pharmaceutical formulations containing 3,7-diazabicyclo[3,3,1]nonane compounds and methods of treatment relating to anti-arrhythmic events” (Solvay Pharmaceuticals GmbH, priority 2002, dated 2006)", "system": "patients with atrial fibrillation", "test": "Placebo-controlled ascending dose study of intravenous tedisamil: conversion to normal sinus rhythm, patients with atrial fibrillation", "format": "in vivo, human", "settings": "for Conversion to NSR at any time within 2.5 hrs after the start of infusion (patients converted out of total) / Conversion to NSR at any time within 2.5 hrs and remaining in NSR until 2.5 hrs after the start of infusion (patients out of total) / Conversion to NSR at any time within 2.5 hrs and remaining in NSR until 2.5 hrs after the start of infusion (percentage of patients) / Conversion to NSR at any time within 2.5 hrs and remaining in NSR until 24 hrs after the start of infusion (patients out of total) / Conversion to NSR at any time within 2.5 hrs and remaining in NSR until 24 hrs after the start of infusion (percentage of patients) / Conversion to NSR at any time within 24 hrs after the start of infusion (patients out of total) / Conversion to NSR at any time within 24 hrs after the start of infusion (percentage of patients) / Conversion to NSR at any time within 24 hrs and remaining in NSR until 24 hrs after the start of infusion (patients out of total) / Conversion to NSR at any time within 24 hrs and remaining in NSR until 24 hrs after the start of infusion (percentage of patients): patients with atrial fibrillation; for Percentage of patients converted to normal sinus rhythm at any time within 2.5 hours after the initiation of the infusion: patients with atrial fibrillation taking beta-blockers", "experimental": "A Multi-Center, Double-Blind, Randomized, Placebo-Controlled, Sequential Ascending Dose Groups Study to evaluate the Efficacy and Safety of Intravenous Tedisamil in the Rapid Conversion to Normal Sinus Rhythm in Patients with Atrial Fibrillation or Flutter was performed.\n• Tedisamil (0.4 mg/kg body weight) • Tedisamil (0.6 mg/kg body weight) • Placebo • Dosages were given as a 30 minute intravenous infusion regimen. 1. Study Design\nThis multicenter trial was a double-blind, randomized, placebo-controlled, ascending dose groups study comparing the efficacy and safety of intravenous tedisamil treatment versus placebo in symptomatic patients with atrial fibrillation or flutter (>3 hours and <48 hours). The primary efficacy endpoint of this study was the termination of atrial fibrillation or flutter (for at least 60 seconds) within 2.5 hours after start of the infusion.\nFollowing screening and baseline assessments, eligible patients were randomized to tedisamil or placebo with a sequential dose escalation approach. In the first stage, patients received 0.4 mg tedisamil/kg body weight or placebo over a 30 minutes infusion period, with half the dose infused during the first 10 minutes and half the dose infused over the remaining 20 minutes. After interim safety evaluation, in the second stage, patients received 0.6 mg tedisamil/kg body weight or placebo, with the same infusion regimen.\nPatients were discharged from the telemetry unit 24 hours post infusion and safety follow up was to be obtained after 28 days. Blinded reviews of 12-lead ECGs (including 60 seconds rhythm strip) and 24 hour Holters to adjudicate the clinical endpoint (conversion to normal sinus rhythm) were performed centrally according to standard guidelines.\nTedisamil dihydrochloride, 0.4 mg/kg body weight, 0.6.mg/kg body weight was administered intravenously. The total infusion time was 30 minutes, with half the dose infused within 10 minutes, and half the dose infused within the remaining 20 minutes.\nThe percentage of patients converted to normal sinus rhythm (for at least 60 seconds) at any time within 2.5 hours after the initiation of the infusion of study drug.\n6.1.2 Secondary Efficacy • The percentage of patients converted to normal sinus rhythm (for at least 60 seconds) at any time within 2.5 hrs and remaining in sinus rhythm until 2.5 hours after initiation of the intravenous infusion of tedisamil versus placebo. • The percentage of patients converted to normal sinus rhythm (for at least 60 seconds) at any time within 24 hours after initiation of the intravenous infusion of tedisamil versus placebo. • The percentage of patients converted to normal sinus rhythm (for at least 60 seconds) at any time within 24 hrs and remaining in sinus rhythm until 24 hours after initiation of the intravenous infusion of tedisamil versus placebo. • The percentage of patients converted to normal sinus rhythm (for at least 60 seconds) at any time within 2.5 hrs and remaining in sinus rhythm until 24 hours after initiation of the intravenous infusion of tedisamil versus placebo. • The time to conversion after the start of the infusion of tedisamil versus placebo. • The dose- and concentration-response relationships of tedisamil versus placebo.\nThe intent-to-treat patient sample was analyzed for efficacy. All tests were two-sided and a p-value <0.05 was considered significant. Differences in percentages of conversion were compared among the treatment groups using the Pearson chi-square statistic. Safety analysis was conducted on the safety patient sample. Numbers and percentages of patients with adverse events were calculated for each treatment group, using MedDRA preferred terms and body systems. Descriptive statistics were summarized by treatment group for changes from baseline in QT, heart rate and blood pressure. […]", "key": {"[1]": {"settings": "0.4 mg/kg iv two-step 30 minute infusion"}, "[2]": {"settings": "0.6 mg/kg iv two-step 30 minute infusion"}, "[3]": {"settings": "Atrial Fibrillation, Female, 0.4 mg/kg, ITT patient sample, patients with DC cardioversion excluded"}, "[4]": {"settings": "Atrial Fibrillation, Female, 0.6 mg/kg, ITT patient sample, patients with DC cardioversion excluded"}, "[5]": {"settings": "Atrial Fibrillation, Male, 0.4 mg/kg, ITT patient sample, patients with DC cardioversion excluded"}, "[6]": {"settings": "Atrial Fibrillation, Male, 0.6 mg/kg, ITT patient sample, patients with DC cardioversion excluded"}, "[7]": {"settings": "atrial fibrillation, Female, <65 yrs, 0.4 mg/kg, ITT, DC cardioversion excluded"}, "[8]": {"settings": "atrial fibrillation, Female, <65 yrs, 0.6 mg/kg, ITT, DC cardioversion excluded"}, "[9]": {"settings": "atrial fibrillation, Female, >=65 yrs, 0.4 mg/kg, ITT, DC cardioversion excluded"}, "[10]": {"settings": "atrial fibrillation, Female, >=65 yrs, 0.6 mg/kg, ITT, DC cardioversion excluded"}, "[11]": {"settings": "atrial fibrillation, Male, <65 yrs, 0.4 mg/kg, ITT, DC cardioversion excluded"}, "[12]": {"settings": "atrial fibrillation, Male, <65 yrs, 0.6 mg/kg, ITT, DC cardioversion excluded"}, "[13]": {"settings": "atrial fibrillation, Male, >=65 yrs, 0.4 mg/kg, ITT, DC cardioversion excluded"}, "[14]": {"settings": "atrial fibrillation, Male, >=65 yrs, 0.6 mg/kg, ITT, DC cardioversion excluded"}}, "data": [{"smiles": "C1CCC2(C1)C1CN(CC3CC3)CC2CN(CC2CC2)C1", "note": "[Tedisamil, N,N′-dicyclopropylmethyl-9,9-tetramethylene-3,7-diazabicyclo[3,3,1]nonane]", "values": [{"measurement": "Conversion to NSR at any time within 2.5 hrs after the start of infusion (patients converted out of total)", "setting": "[1]", "result": "24 out of 52"}, {"measurement": "Conversion to NSR at any time within 2.5 hrs and remaining in NSR until 2.5 hrs after the start of infusion (patients out of total)", "setting": "[1]", "result": "23 out of 52"}, {"measurement": "Conversion to NSR at any time within 2.5 hrs and remaining in NSR until 2.5 hrs after the start of infusion (percentage of patients)", "setting": "[1]", "result": "(44%)"}, {"measurement": "Conversion to NSR at any time within 2.5 hrs and remaining in NSR until 24 hrs after the start of infusion (patients out of total)", "setting": "[1]", "result": "22 out of 42"}, {"measurement": "Conversion to NSR at any time within 2.5 hrs and remaining in NSR until 24 hrs after the start of infusion (percentage of patients)", "setting": "[1]", "result": "(52%)"}, {"measurement": "Conversion to NSR at any time within 24 hrs after the start of infusion (patients out of total)", "setting": "[1]", "result": "26 out of 42"}, {"measurement": "Conversion to NSR at any time within 24 hrs after the start of infusion (percentage of patients)", "setting": "[1]", "result": "(62%)"}, {"measurement": "Conversion to NSR at any time within 24 hrs and remaining in NSR until 24 hrs after the start of infusion (patients out of total)", "setting": "[1]", "result": "24 out of 42"}, {"measurement": "Conversion to NSR at any time within 24 hrs and remaining in NSR until 24 hrs after the start of infusion (percentage of patients)", "setting": "[1]", "result": "(57%)"}, {"measurement": "Conversion to NSR at any time within 2.5 hrs after the start of infusion (patients converted out of total)", "setting": "[2]", "result": "24 out of 42"}, {"measurement": "Conversion to NSR at any time within 2.5 hrs and remaining in NSR until 2.5 hrs after the start of infusion (patients out of total)", "setting": "[2]", "result": "24 out of 42"}, {"measurement": "Conversion to NSR at any time within 2.5 hrs and remaining in NSR until 2.5 hrs after the start of infusion (percentage of patients)", "setting": "[2]", "result": "(57%)"}, {"measurement": "Conversion to NSR at any time within 2.5 hrs and remaining in NSR until 24 hrs after the start of infusion (patients out of total)", "setting": "[2]", "result": "22 out of 37"}, {"measurement": "Conversion to NSR at any time within 2.5 hrs and remaining in NSR until 24 hrs after the start of infusion (percentage of patients)", "setting": "[2]", "result": "(59%)"}, {"measurement": "Conversion to NSR at any time within 24 hrs after the start of infusion (patients out of total)", "setting": "[2]", "result": "26 out of 37"}, {"measurement": "Conversion to NSR at any time within 24 hrs after the start of infusion (percentage of patients)", "setting": "[2]", "result": "(70%)"}, {"measurement": "Conversion to NSR at any time within 24 hrs and remaining in NSR until 24 hrs after the start of infusion (patients out of total)", "setting": "[2]", "result": "24 out of 37"}, {"measurement": "Conversion to NSR at any time within 24 hrs and remaining in NSR until 24 hrs after the start of infusion (percentage of patients)", "setting": "[2]", "result": "(65%)"}, {"measurement": "Conversion to NSR at any time within 2.5 hrs after start of infusion (%)", "setting": "[3]", "result": 35.3, "unit": "%"}, {"measurement": "Conversion to NSR at any time within 2.5 hrs after start of infusion (converted/total)", "setting": "[3]", "result": "6/17"}, {"measurement": "Conversion to NSR at any time within 2.5 hrs after start of infusion (%)", "setting": "[4]", "result": 37.5, "unit": "%"}, {"measurement": "Conversion to NSR at any time within 2.5 hrs after start of infusion (converted/total)", "setting": "[4]", "result": "6/16"}, {"measurement": "Conversion to NSR at any time within 2.5 hrs after start of infusion (%)", "setting": "[5]", "result": 51.4, "unit": "%"}, {"measurement": "Conversion to NSR at any time within 2.5 hrs after start of infusion (converted/total)", "setting": "[5]", "result": "18/35"}, {"measurement": "Conversion to NSR at any time within 2.5 hrs after start of infusion (%)", "setting": "[6]", "result": 69.2, "unit": "%"}, {"measurement": "Conversion to NSR at any time within 2.5 hrs after start of infusion (converted/total)", "setting": "[6]", "result": "18/26"}, {"measurement": "Conversion to NSR at any time within 2.5 hrs after start of infusion (%)", "setting": "[7]", "result": 40.0, "unit": "%"}, {"measurement": "Conversion to NSR at any time within 2.5 hrs after start of infusion (converted/total)", "setting": "[7]", "result": "2/5"}, {"measurement": "Conversion to NSR at any time within 2.5 hrs after start of infusion (%)", "setting": "[8]", "result": 33.3, "unit": "%"}, {"measurement": "Conversion to NSR at any time within 2.5 hrs after start of infusion (converted/total)", "setting": "[8]", "result": "1/3"}, {"measurement": "Conversion to NSR at any time within 2.5 hrs after start of infusion (%)", "setting": "[9]", "result": 33.3, "unit": "%"}, {"measurement": "Conversion to NSR at any time within 2.5 hrs after start of infusion (converted/total)", "setting": "[9]", "result": "4/12"}, {"measurement": "Conversion to NSR at any time within 2.5 hrs after start of infusion (%)", "setting": "[10]", "result": 38.5, "unit": "%"}, {"measurement": "Conversion to NSR at any time within 2.5 hrs after start of infusion (converted/total)", "setting": "[10]", "result": "5/13"}, {"measurement": "Conversion to NSR at any time within 2.5 hrs after start of infusion (%)", "setting": "[11]", "result": 50.0, "unit": "%"}, {"measurement": "Conversion to NSR at any time within 2.5 hrs after start of infusion (converted/total)", "setting": "[11]", "result": "10/20"}, {"measurement": "Conversion to NSR at any time within 2.5 hrs after start of infusion (%)", "setting": "[12]", "result": 72.2, "unit": "%"}, {"measurement": "Conversion to NSR at any time within 2.5 hrs after start of infusion (converted/total)", "setting": "[12]", "result": "13/18"}, {"measurement": "Conversion to NSR at any time within 2.5 hrs after start of infusion (%)", "setting": "[13]", "result": 51.4, "unit": "%"}, {"measurement": "Conversion to NSR at any time within 2.5 hrs after start of infusion (converted/total)", "setting": "[13]", "result": "8/15"}, {"measurement": "Conversion to NSR at any time within 2.5 hrs after start of infusion (%)", "setting": "[14]", "result": 62.5, "unit": "%"}, {"measurement": "Conversion to NSR at any time within 2.5 hrs after start of infusion (converted/total)", "setting": "[14]", "result": "5/8"}, {"measurement": "Percentage of patients converted to normal sinus rhythm at any time within 2.5 hours after the initiation of the infusion", "setting": "0.4 mg group", "result": 52, "unit": "%"}, {"measurement": "Percentage of patients converted to normal sinus rhythm at any time within 2.5 hours after the initiation of the infusion", "setting": "0.6 mg group", "result": 60, "unit": "%"}]}]}
